Results from US20250313547A1, “CEREBLON LIGANDS AND BIFUNCTIONAL COMPOUNDS COMPRISING THE SAME” (Arvinas Operations, Inc., priority 2017, published 2025).

Each molecule was assayed against immobilized CRBN protein (cereblon) (Homo sapiens (Human), UniProt Q96SW2) (assay: Surface plasmon resonance (SPR) KD determination on immobilized cereblon). Settings: average of at least N=2, 1:1 fit, read-out: KD Binding to immobilized CRBN protein in SPR assay.
Sequence of immobilized CRBN protein (cereblon) (Q96SW2 whole entry): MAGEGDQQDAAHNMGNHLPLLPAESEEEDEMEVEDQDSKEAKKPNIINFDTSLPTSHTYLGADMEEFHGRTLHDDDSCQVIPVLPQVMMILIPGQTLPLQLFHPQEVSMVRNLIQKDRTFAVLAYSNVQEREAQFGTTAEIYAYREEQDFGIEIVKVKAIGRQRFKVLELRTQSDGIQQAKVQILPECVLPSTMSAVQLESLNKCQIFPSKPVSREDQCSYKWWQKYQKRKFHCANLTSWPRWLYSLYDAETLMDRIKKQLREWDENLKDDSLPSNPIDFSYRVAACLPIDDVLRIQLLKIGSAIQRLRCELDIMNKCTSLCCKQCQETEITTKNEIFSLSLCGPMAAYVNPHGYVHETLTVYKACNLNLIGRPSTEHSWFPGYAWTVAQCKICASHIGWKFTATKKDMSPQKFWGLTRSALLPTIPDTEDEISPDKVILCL
Experimental: The surface plasmon resonance (SPR) experiments were conducted on a Biacore3000 (GE Healthcare). Myc-tagged cereblon was immobilized on a carboxymethylated dextran surface (CM5) amine coupled to anti-Myc antibody to recognize the Myc tag. His-tagged cereblon protein was immobilized on a carboxymethylated dextran surface with nitriloacetic acid (NTA), taking advantage of NTA/Ni^2+ chelation. The prepared surface was allowed to equilibrate over three hours in running buffer (10 mM HEPES buffer @pH 7.4, 150 mM NaCl, 0.005% P20,2% DMSO).
All compounds were prepared in 100% DMSO stock plates with a top concentration of 5 mM in a 3× serial dilution. Compounds were transferred from the stock plate to the assay plate and diluted into running buffer containing no DMSO. All compounds were run as a six-concentration series with a final assay top concentration of 100 μM.
Data analysis was performed in Scrubber 2 (BioLogic software, Campbell, Australia). Blanks were subtracted and data was corrected for DMSO against a standard DMSO curve.
For `O=C1CCC(N2C(=O)c3cc(F)c(NCCCCCCO)cc3C2=O)C(=O)N1` (stereo not shown) [compound 3], the Kd was 10 to 100 µM.
For `O=C1CCC(N2Cc3c(ccc(F)c3OCCCCCCO)C2=O)C(=O)N1` (stereo not shown) [compound 4], the Kd was 10 to 100 µM.
With `O=C1CCC(N2Cc3cc(NCCCCCCO)c(F)cc3C2=O)C(=O)N1` (stereo not shown) [compound 5] the Kd was 10 to 100 µM.
`O=C1NC(C(F)(F)F)CCC1N1C(=O)c2cccc(F)c2C1=O` (stereo not shown) [compound 6] showed a Kd of over 100 µM.
`O=C1c2cccc(F)c2C(=O)N1c1ccc(C(F)(F)F)[nH]c1=O` [compound 7] gave a Kd of over 100 µM.
Work on `O=C1CCC(N2C(=O)c3c(F)ccc(F)c3C2=O)C(=O)N1` (stereo not shown) [compound 8] yielded a Kd of over 100 µM.
Molecule `O=C1CCC(N2C(=O)c3ccc(F)c(F)c3C2=O)C(=O)N1` (stereo not shown) [compound 9] has a Kd of 1 to 10 µM.
`CNc1ccccc1C(=O)NCCN1CCC(=O)NC1=O` [compound 10] was tested, and the Kd was over 100 µM.
For `CNc1ccccc1C(=O)NCCN1C(=O)CCNC1=O` [compound 11], the Kd was over 100 µM.
`CNc1ccccc1C(=O)NCCn1ccc(=O)[nH]c1=O` [compound 12] was tested, and the Kd was over 100 µM.
For `O=C1CCC(N2C(=O)c3ccccc3C2=O)C2(COC2)N1` (stereo not shown) [compound 14], the Kd was over 100 µM.
With `CCOc1cnn(C2CCC(=O)NC2=O)c(=O)c1Cl` (stereo not shown) [compound 15] the Kd was over 100 µM.
`O=C1c2ccccc2C(=O)N1CCn1ccc(=O)[nH]c1=O` [compound 16] was tested, and the Kd was over 100 µM.
With `O=C1CCC(N2C(=O)c3ccc(F)cc3C2=O)C(=O)N1` (stereo not shown) [compound 17] the Kd was over 100 µM.
With `CN1CC(N2C(=O)c3ccccc3C2=O)C(=O)NC1=O` (stereo not shown) [compound 18] the Kd was over 100 µM.
Molecule `O=CN1CCC(N2C(=O)c3ccccc3C2=O)C(=O)N1` (stereo not shown) [compound 19] has a Kd of over 100 µM.
In the case of `O=C1CCC(N2Cc3ccccc3C2=O)C2(COC2)N1` (stereo not shown) [compound 20], the Kd is reported as over 100 µM.
`Cn1cc(N2C(=O)c3ccccc3C2=O)c(=O)[nH]c1=O` [compound 21] was tested, and the Kd was over 100 µM.
Work on `CC1(C)C(=O)NC(=O)N1C1CC2CCCCN2C1=O` (stereo not shown) [compound 22] yielded a Kd of over 100 µM.
`N#Cc1cn(-c2cnc3ccccc3c2)c(=O)[nH]c1=O` [compound 23] showed a Kd of 10 to 100 µM.
With `O=C1NC(=O)C(N2C(=O)c3cccc(F)c3C2=O)N1` (stereo not shown) [compound 24] the Kd was over 100 µM.
`O=C1NCC(N2C(=O)c3ccccc3C2=O)C(=O)N1` (stereo not shown) [compound 25] was tested, and the Kd was over 100 µM.
For `O=C1c2ccccc2C(=O)N1c1c[nH]c(=O)[nH]c1=O` [compound 26], the Kd was over 100 µM.
Molecule `Cc1c(N2CCC(=O)NC2=O)cnc2ccccc12` [compound 27] has a Kd of over 100 µM.
`Cc1c(-n2ccc(=O)[nH]c2=O)cnc2ccccc12` [compound 28] gave a Kd of 10 to 100 µM.
Work on `CCOc1cc(=O)n(C2CCC(=O)NC2=O)cn1` (stereo not shown) [compound 29] yielded a Kd of 10 to 100 µM.
`CCOc1cnn(C2CCC(=O)NC2=O)c(=O)c1` (stereo not shown) [compound 30] was tested, and the Kd was 1 to 10 µM.
Molecule `CCOc1ccn(C2CCC(=O)NC2=O)c(=O)c1` (stereo not shown) [compound 31] has a Kd of over 100 µM.
With `O=C1CCN(c2cncc3ccccc23)C(=O)N1` [compound 32] the Kd was 1 to 10 µM.
`O=c1ccn(-c2cnc3ccccc3c2)c(=O)[nH]1` [compound 33] gave a Kd of over 100 µM.
Work on `O=c1ccn(-c2cncc3ccccc23)c(=O)[nH]1` [compound 34] yielded a Kd of 10 to 100 µM.
In the case of `O=C1CN(C2Cc3ccccc3C2=O)C(=O)N1` (stereo not shown) [compound 35], the Kd is reported as over 100 µM.
`Cc1ccncc1-n1cc(C#N)c(=O)[nH]c1=O` [compound 36] gave a Kd of over 100 µM.
With `O=c1ccn([C@H]2C[C@H](O)[C@@H](CO)O2)c(=O)[nH]1` [compound 37] the Kd was over 100 µM.
In the case of `N#Cc1cn(-c2cccnc2)c(=O)[nH]c1=O` [compound 38], the Kd is reported as over 100 µM.
`Cc1cn(-c2cccnc2)c(=O)[nH]c1=O` [compound 39] was tested, and the Kd was over 100 µM.
`O=c1ccn(-c2cccnc2)c(=O)[nH]1` [compound 40] gave a Kd of 10 to 100 µM.
In the case of `Cc1cc(C(N)=O)[nH]c(=O)c1N1C(=O)c2ccccc2C1=O` [compound 41], the Kd is reported as over 100 µM.
For `NC(=O)c1ccc(N2C(=O)c3ccccc3C2=O)c(=O)[nH]1` [compound 42], the Kd was over 100 µM.
Work on `Cc1cc(C#N)[nH]c(=O)c1N1C(=O)c2ccccc2C1=O` [compound 43] yielded a Kd of 10 to 100 µM.
Molecule `N#Cc1ccc(N2C(=O)c3ccccc3C2=O)c(=O)[nH]1` [compound 44] has a Kd of 10 to 100 µM.

The molecules below were run on androgen receptor (AR) (assay: AR ELISA assay (androgen receptor degradation)). Settings: % degraded; LNCaP and/or VCaP cells, 5 hours drug treatment.
Format: cell-based
Procedure, shortened: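 VCaP cells (LNCaP in some cases) grown at least 3 days in phenol red-free RPMI with 5% charcoal-stripped FBS, then treated with PROTACs in 0.01% DMSO for 5 h. AR level in lysates measured by sandwich ELISA, TMB read at 450 nm.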
For `CC1(C)[C@H](NC(=O)c2ccc(CCCCN3CCN(c4cnn(C5CCC(=O)NC5=O)c(=O)c4)CC3)nc2)C(C)(C)[C@H]1Oc1ccc(C#N)c(Cl)c1` (stereo partly shown) [PROTAC-61, N-((1r,3r)-3-(3-chloro-4-cyanophenoxy)-2,2,4,4-tetramethylcyclobutyl)-6-(4-(4-(1-(2,6-dioxopiperidin-3-yl)-6-oxo-1,6-dihydropyridazin-4-yl)piperazin-1-yl)butyl)nicotinamide], the “AR Dmax” value was “B (50 < B <= 75)”.
In the case of `CC1(C)[C@H](NC(=O)c2ccc(N3CCC(CN4CCN(c5ccc6c(c5)C(=O)N(C5CC(=O)NC5=O)C6=O)CC4)CC3)cc2)C(C)(C)[C@H]1Oc1ccc(C#N)c(Cl)c1` (stereo partly shown) [PROTAC-66, N-((1r,3r)-3-(3-chloro-4-cyanophenoxy)-2,2,4,4-tetramethylcyclobutyl)-4-(4-((4-(2-(2,5-dioxopyrrolidin-3-yl)-1,3-dioxoisoindolin-5-yl)piperazin-1-yl)methyl)piperidin-1-yl)benzamide], the “AR Dmax” value is reported as “C (C <= 50)”.
With `Cn1c(-c2ccc(N3CCN(CC4CCN(c5ccc(C(=O)N[C@H]6C(C)(C)[C@H](Oc7ccc(C#N)c(Cl)c7)C6(C)C)cc5)CC4)CC3)cc2)nn(C2CCC(=O)NC2=O)c1=O` (stereo partly shown) [PROTAC-70, N-((1r,3r)-3-(3-chloro-4-cyanophenoxy)-2,2,4,4-tetramethylcyclobutyl)-4-(4-((4-(4-(1-(2,6-dioxopiperidin-3-yl)-4-methyl-5-oxo-4,5-dihydro-1H-1,2,4-triazol-3-yl)phenyl)piperazin-1-yl)methyl)piperidin-1-yl)benzamide] the “AR Dmax” value was “A (A > 75)”.
With `CC1(C)[C@H](NC(=O)c2ccc(N3CCN(CCCCCOc4ccc5c(-n6ccc(=O)[nH]c6=O)cncc5c4)CC3)nc2)C(C)(C)[C@H]1Oc1ccc(C#N)c(Cl)c1` [PROTAC-79, N-((1r,3r)-3-(3-chloro-4-cyanophenoxy)-2,2,4,4-tetramethylcyclobutyl)-6-(4-(5-((4-(2,4-dioxo-3,4-dihydropyrimidin-1(2H)-yl)isoquinolin-7-yl)oxy)pentyl)piperazin-1-yl)nicotinamide] the “AR Dmax” value was “C (C <= 50)”.
For `CC1(C)[C@H](NC(=O)c2ccc(N3CCN(CCCCCOc4ccc5ncc(-n6cc(C#N)c(=O)[nH]c6=O)cc5c4)CC3)nc2)C(C)(C)[C@H]1Oc1ccc(C#N)c(Cl)c1` [PROTAC-80, N-((1r,3r)-3-(3-chloro-4-cyanophenoxy)-2,2,4,4-tetramethylcyclobutyl)-6-(4-(5-((3-(5-cyano-2,4-dioxo-3,4-dihydropyrimidin-1(2H)-yl)quinolin-6-yl)oxy)pentyl)piperazin-1-yl)nicotinamide], the “AR Dmax” value was “C (C <= 50)”.
In the case of `C=C1CN(C2CCC(=O)NC2=O)C(=O)c2ccc(N3CCN(CC4CCN(c5ccc(C(=O)N[C@H]6C(C)(C)[C@H](Oc7ccc(C#N)c(Cl)c7)C6(C)C)cc5)CC4)CC3)cc21` (stereo partly shown) [PROTAC-81, N-((1r,3r)-3-(3-chloro-4-cyanophenoxy)-2,2,4,4-tetramethylcyclobutyl)-4-(4-((4-(2-(2,6-dioxopiperidin-3-yl)-4-methylene-1-oxo-1,2,3,4-tetrahydroisoquinolin-6-yl)piperazin-1-yl)methyl)piperidin-1-yl)benzamide], the “AR Dmax” value is reported as “A (A > 75)”.
`CC1(C)[C@H](NC(=O)c2ccc(N3CCC(CN4CCN(c5ccc6c(=O)n(C7CCC(=O)NC7=O)ccc6c5)CC4)CC3)cc2)C(C)(C)[C@H]1Oc1ccc(C#N)c(Cl)c1` (stereo partly shown) [PROTAC-82, N-((1r,3r)-3-(3-chloro-4-cyanophenoxy)-2,2,4,4-tetramethylcyclobutyl)-4-(4-((4-(2-(2,6-dioxopiperidin-3-yl)-1-oxo-1,2-dihydroisoquinolin-6-yl)piperazin-1-yl)methyl)piperidin-1-yl)benzamide] was tested, and the “AR Dmax” value was “A (A > 75)”.

Same assay, conditions: LNCaP and/or VCaP cells, 5 hours drug treatment
Molecule `CC1(C)[C@H](NC(=O)c2ccc(CCCCN3CCN(c4cnn(C5CCC(=O)NC5=O)c(=O)c4)CC3)nc2)C(C)(C)[C@H]1Oc1ccc(C#N)c(Cl)c1` (stereo partly shown) [PROTAC-61, N-((1r,3r)-3-(3-chloro-4-cyanophenoxy)-2,2,4,4-tetramethylcyclobutyl)-6-(4-(4-(1-(2,6-dioxopiperidin-3-yl)-6-oxo-1,6-dihydropyridazin-4-yl)piperazin-1-yl)butyl)nicotinamide] has a DC50 of under 0.001 µM.
With `CC1(C)[C@H](NC(=O)c2ccc(N3CCC(CN4CCN(c5ccc6c(c5)C(=O)N(C5CC(=O)NC5=O)C6=O)CC4)CC3)cc2)C(C)(C)[C@H]1Oc1ccc(C#N)c(Cl)c1` (stereo partly shown) [PROTAC-66, N-((1r,3r)-3-(3-chloro-4-cyanophenoxy)-2,2,4,4-tetramethylcyclobutyl)-4-(4-((4-(2-(2,5-dioxopyrrolidin-3-yl)-1,3-dioxoisoindolin-5-yl)piperazin-1-yl)methyl)piperidin-1-yl)benzamide] the DC50 was at least 0.1 µM.
`Cn1c(-c2ccc(N3CCN(CC4CCN(c5ccc(C(=O)N[C@H]6C(C)(C)[C@H](Oc7ccc(C#N)c(Cl)c7)C6(C)C)cc5)CC4)CC3)cc2)nn(C2CCC(=O)NC2=O)c1=O` (stereo partly shown) [PROTAC-70, N-((1r,3r)-3-(3-chloro-4-cyanophenoxy)-2,2,4,4-tetramethylcyclobutyl)-4-(4-((4-(4-(1-(2,6-dioxopiperidin-3-yl)-4-methyl-5-oxo-4,5-dihydro-1H-1,2,4-triazol-3-yl)phenyl)piperazin-1-yl)methyl)piperidin-1-yl)benzamide] showed a DC50 of under 0.001 µM.
For `CC1(C)[C@H](NC(=O)c2ccc(N3CCN(CCCCCOc4ccc5c(-n6ccc(=O)[nH]c6=O)cncc5c4)CC3)nc2)C(C)(C)[C@H]1Oc1ccc(C#N)c(Cl)c1` [PROTAC-79, N-((1r,3r)-3-(3-chloro-4-cyanophenoxy)-2,2,4,4-tetramethylcyclobutyl)-6-(4-(5-((4-(2,4-dioxo-3,4-dihydropyrimidin-1(2H)-yl)isoquinolin-7-yl)oxy)pentyl)piperazin-1-yl)nicotinamide], the DC50 was 0.001 to 0.01 µM.
`CC1(C)[C@H](NC(=O)c2ccc(N3CCN(CCCCCOc4ccc5ncc(-n6cc(C#N)c(=O)[nH]c6=O)cc5c4)CC3)nc2)C(C)(C)[C@H]1Oc1ccc(C#N)c(Cl)c1` [PROTAC-80, N-((1r,3r)-3-(3-chloro-4-cyanophenoxy)-2,2,4,4-tetramethylcyclobutyl)-6-(4-(5-((3-(5-cyano-2,4-dioxo-3,4-dihydropyrimidin-1(2H)-yl)quinolin-6-yl)oxy)pentyl)piperazin-1-yl)nicotinamide] showed a DC50 of at least 0.1 µM.
For `C=C1CN(C2CCC(=O)NC2=O)C(=O)c2ccc(N3CCN(CC4CCN(c5ccc(C(=O)N[C@H]6C(C)(C)[C@H](Oc7ccc(C#N)c(Cl)c7)C6(C)C)cc5)CC4)CC3)cc21` (stereo partly shown) [PROTAC-81, N-((1r,3r)-3-(3-chloro-4-cyanophenoxy)-2,2,4,4-tetramethylcyclobutyl)-4-(4-((4-(2-(2,6-dioxopiperidin-3-yl)-4-methylene-1-oxo-1,2,3,4-tetrahydroisoquinolin-6-yl)piperazin-1-yl)methyl)piperidin-1-yl)benzamide], the DC50 was under 0.001 µM.
`CC1(C)[C@H](NC(=O)c2ccc(N3CCC(CN4CCN(c5ccc6c(=O)n(C7CCC(=O)NC7=O)ccc6c5)CC4)CC3)cc2)C(C)(C)[C@H]1Oc1ccc(C#N)c(Cl)c1` (stereo partly shown) [PROTAC-82, N-((1r,3r)-3-(3-chloro-4-cyanophenoxy)-2,2,4,4-tetramethylcyclobutyl)-4-(4-((4-(2-(2,6-dioxopiperidin-3-yl)-1-oxo-1,2-dihydroisoquinolin-6-yl)piperazin-1-yl)methyl)piperidin-1-yl)benzamide] gave a DC50 of under 0.001 µM.
